≈ marks a conversion by molar mass, not a printed value.
Columns and labels:
Format in all cases: functional
Haemophilus influenzae [1] = experiment: Antimicrobial activity against ampicillin resistant nontypeable Haemophilus influenzae isolate BB1050 harboring with plasmid pB1000 bearing beta-lactamase ROB-1 by broth microdilution method
Haemophilus influenzae [2] = experiment: Antimicrobial activity against ampicillin resistant nontypeable Haemophilus influenzae isolate BB1051 harboring with plasmid pB1000 bearing beta-lactamase ROB-1 by broth microdilution method
Haemophilus influenzae [3] = experiment: Antimicrobial activity against Haemophilus influenzae Rd KW20 harboring with plasmid pB1000 bearing beta-lactamase ROB-1 by broth microdilution method
Haemophilus influenzae [4] = experiment: Antimicrobial activity against ampicillin resistant serotype-e Haemophilus influenzae isolate BB1053 harboring with plasmid pB1000 bearing beta-lactamase ROB-1 by broth microdilution method
Haemophilus influenzae [5] = experiment: Antimicrobial activity against Haemophilus influenzae Rd KW20 by broth microdilution method
Haemophilus influenzae [6] = experiment: Antimicrobial activity against ampicillin resistant nontypeable Haemophilus influenzae isolate BB1052 harboring with plasmid pB1000 bearing beta-lactamase ROB-1 by broth microdilution method

In the case of `CC1(C)S[C@@H]2[C@H](NC(=O)[C@H](N)c3ccccc3)C(=O)N2[C@H]1C(=O)O` [AMPICILLIN], the MIC (Haemophilus influenzae [1]) is reported as greater than 128 µg/mL, the MIC (Haemophilus influenzae [2]) is reported as greater than 128 µg/mL and the MIC (Haemophilus influenzae [3]) is reported as greater than 128 µg/mL. It also gave an MIC (Haemophilus influenzae [4]) greater than 128 µg/mL, an MIC (Haemophilus influenzae [5]) of no more than 0.25 µg/mL and an MIC (Haemophilus influenzae [6]) greater than 128 µg/mL.

`C[C@@H](O)[C@H]1C(=O)N2C(C(=O)O)=C(SCCNC=N)C[C@H]12` [IMIPENEM ANHYDROUS] was tested, and the MIC (Haemophilus influenzae [1]) was 2 µg/mL (≈ 6.68 µM), the MIC (Haemophilus influenzae [2]) was 0.5 µg/mL (≈ 1.67 µM) and the MIC (Haemophilus influenzae [3]) was 1 µg/mL (≈ 3.34 µM). The MIC (Haemophilus influenzae [4]) was 0.5 µg/mL (≈ 1.67 µM), the MIC (Haemophilus influenzae [5]) was 0.5 µg/mL (≈ 1.67 µM) and the MIC (Haemophilus influenzae [6]) was 1 µg/mL (≈ 3.34 µM).

`C=CC1=C(C(=O)O)N2C(=O)[C@@H](NC(=O)/C(=N\OCC(=O)O)c3csc(N)n3)[C@H]2SC1` [CEFIXIME] was tested, and the MIC (Haemophilus influenzae [1]) was 0.06 µg/mL (≈ 0.132 µM), the MIC (Haemophilus influenzae [2]) was 0.06 µg/mL (≈ 0.132 µM) and the MIC (Haemophilus influenzae [3]) was 0.06 µg/mL (≈ 0.132 µM). It also gave an MIC (Haemophilus influenzae [4]) of 0.06 µg/mL (≈ 0.132 µM), an MIC (Haemophilus influenzae [5]) of no more than 0.03 µg/mL and an MIC (Haemophilus influenzae [6]) of no more than 0.03 µg/mL.

With `CC1(C)S[C@@H]2[C@H](NC(=O)[C@H](N)c3ccc(O)cc3)C(=O)N2[C@H]1C(=O)O` [AMOXICILLIN] the MIC (Haemophilus influenzae [1]) was greater than 64 µg/mL, the MIC (Haemophilus influenzae [2]) was greater than 64 µg/mL and the MIC (Haemophilus influenzae [3]) was greater than 64 µg/mL. It also gave an MIC (Haemophilus influenzae [4]) greater than 64 µg/mL, an MIC (Haemophilus influenzae [5]) of no more than 0.5 µg/mL and an MIC (Haemophilus influenzae [6]) greater than 64 µg/mL.

`CO/N=C(\C(=O)N[C@@H]1C(=O)N2C(C(=O)O)=C(COC(C)=O)CS[C@H]12)c1csc(N)n1` [CEFOTAXIME] was tested, and the MIC (Haemophilus influenzae [1]) was 0.06 µg/mL (≈ 0.132 µM), the MIC (Haemophilus influenzae [2]) was no more than 0.03 µg/mL and the MIC (Haemophilus influenzae [4]) was no more than 0.03 µg/mL. For the same compound, the MIC (Haemophilus influenzae [5]) was no more than 0.03 µg/mL and the MIC (Haemophilus influenzae [6]) was no more than 0.03 µg/mL.

With `N[C@@H](C(=O)N[C@@H]1C(=O)N2C(C(=O)O)=C(Cl)CS[C@H]12)c1ccccc1` [CEFACLOR ANHYDROUS] the MIC (Haemophilus influenzae [1]) was 64 µg/mL (≈ 174 µM), the MIC (Haemophilus influenzae [2]) was 64 µg/mL (≈ 174 µM) and the MIC (Haemophilus influenzae [3]) was 64 µg/mL (≈ 174 µM). The MIC (Haemophilus influenzae [4]) was 64 µg/mL (≈ 174 µM), the MIC (Haemophilus influenzae [5]) was 1 µg/mL (≈ 2.72 µM) and the MIC (Haemophilus influenzae [6]) was 64 µg/mL (≈ 174 µM).

With `CO/N=C(\C(=O)N[C@@H]1C(=O)N2C(C(=O)O)=C(COC(N)=O)CS[C@H]12)c1ccco1` [CEFUROXIME] the MIC (Haemophilus influenzae [1]) was 4 µg/mL (≈ 9.43 µM), the MIC (Haemophilus influenzae [2]) was 4 µg/mL (≈ 9.43 µM) and the MIC (Haemophilus influenzae [3]) was 4 µg/mL (≈ 9.43 µM). For the same compound, the MIC (Haemophilus influenzae [4]) was 4 µg/mL (≈ 9.43 µM), the MIC (Haemophilus influenzae [5]) was 0.5 µg/mL (≈ 1.18 µM) and the MIC (Haemophilus influenzae [6]) was 4 µg/mL (≈ 9.43 µM).

With `CC1(C)S[C@@H]2[C@H](NC(=O)Cc3ccccc3)C(=O)N2[C@H]1C(=O)O` [PENICILLIN G] the MIC (Haemophilus influenzae [1]) was greater than 256 µg/mL, the MIC (Haemophilus influenzae [2]) was greater than 256 µg/mL and the MIC (Haemophilus influenzae [3]) was greater than 256 µg/mL. The MIC (Haemophilus influenzae [4]) was greater than 256 µg/mL, the MIC (Haemophilus influenzae [5]) was 0.5 µg/mL (≈ 1.5 µM) and the MIC (Haemophilus influenzae [6]) was greater than 256 µg/mL.

`C[C@H]1[C@H](NC(=O)/C(=N\OC(C)(C)C(=O)O)c2csc(N)n2)C(=O)N1S(=O)(=O)O` [AZTREONAM] showed an MIC (Haemophilus influenzae [1]) of no more than 0.12 µg/mL, an MIC (Haemophilus influenzae [2]) of no more than 0.12 µg/mL and an MIC (Haemophilus influenzae [3]) of no more than 0.12 µg/mL. For the same compound, the MIC (Haemophilus influenzae [4]) was no more than 0.12 µg/mL, the MIC (Haemophilus influenzae [5]) was no more than 0.12 µg/mL and the MIC (Haemophilus influenzae [6]) was no more than 0.12 µg/mL.

— ChEMBL document CHEMBL1255399, “Haemophilus influenzae clinical isolates with plasmid pB1000 bearing blaROB-1: fitness cost and interspecies dissemination” (2010)
